In the supplement of paper PMC6045584:
± gives the standard deviation of the averaged measurements.

Tests used:
[1] = compound: CC(=O)c1c(C)c2cnc(Nc3ccc(N4CCNCC4)cn3)nc2n(C2CCCC2)c1=O; assay: surviving fraction relative to DMSO-only wells; higher = less growth inhibition; details: exposure time: 5 days
How it was run: (§1)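 Luminescence normalised to the median of DMSO-only wells defines surviving fraction, with viability read by CellTiter-Glo. Signal was recorded after 10 minutes at room temperature, once log-phase tumour cell lines seeded at 250–500 cells per well in 384-well plates had spent 24 hours settling and then five days under continuous exposure to inhibitors at 0.5, 1, 5, 10, 50, 100, 500 and 1000 nM.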

PACLITAXEL [2] = compound: T1, CC(=O)O[C@H]1C(=O)[C@@]2(C)[C@H]([C@H](OC(=O)c3ccccc3)[C@]3(O)C[C@H](OC(=O)[C@H](O)[C@@H](NC(=O)c4ccccc4)c4ccccc4)C(C)=C1C3(C)C)[C@]1(OC(C)=O)CO[C@@H]1C[C@@H]2O [PACLITAXEL]; assay: as above; details: exposure time: 5 days
How it was run: as §1

OSI-906 [3] = compound: T2, C[C@]1(O)C[C@@H](c2nc(-c3ccc4ccc(-c5ccccc5)nc4c3)c3c(N)nccn32)C1 [OSI-906]; assay: as above; details: exposure time: 5 days
How it was run: as §1

[4] = compound: CC(=O)NCC(=O)N1[C@@H]2CC[C@H]1c1ccc(Nc3ncc(C(F)(F)F)c(NC4CCC4)n3)cc12; assay: as above; details: exposure time: 5 days
How it was run: as §1

CAMPTOTHECIN [5] = compound: T3, CC[C@@]1(O)C(=O)OCc2c1cc1n(c2=O)Cc2cc3ccccc3nc2-1 [CAMPTOTHECIN]; assay: as above; details: exposure time: 5 days
How it was run: as §1

CELECOXIB [6] = compound: T4, Cc1ccc(-c2cc(C(F)(F)F)nn2-c2ccc(S(N)(=O)=O)cc2)cc1 [CELECOXIB]; assay: as above; details: exposure time: 5 days
How it was run: as §1

CARBOPLATIN [7] = compound: T5, O=C(O)C1(C(=O)O)CCC1.[NH2-].[NH2-].[Pt+2] [CARBOPLATIN]; assay: as above; details: exposure time: 5 days
How it was run: as §1

YM155 [8] = compound: T6, COCC[n+]1c2c(n(Cc3cnccn3)c1C)C(=O)c1ccccc1C2=O [YM155]; assay: as above; details: exposure time: 5 days
How it was run: as §1

GEFITINIB [9] = compound: T7, COc1cc2ncnc(Nc3ccc(F)c(Cl)c3)c2cc1OCCCN1CCOCC1 [GEFITINIB]; assay: as above; details: exposure time: 5 days
How it was run: as §1

[10] = compound: CC(=O)c1c(C)c2cnc(Nc3ccc(N4CCNCC4)cn3)nc2n(C2CCCC2)c1=O; assay: area under dose-response curve of surviving fraction (unscaled, Aref=0) (surviving fraction x log10(nM)); higher = more resistant; details: exposure time: 5 days; dose range 0.5-1000 nM
How it was run: (§2)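 Tumour cell lines in 384-well plates were exposed for five days to eight inhibitor concentrations from 0.5 to 1000 nM. Viability was read by CellTiter-Glo luminescence, normalised to DMSO-only wells, in three screens per line. Dose-response survival curves were fitted to surviving fractions by 3-parameter logistic regression in the drc R package. Area under the curve is the unscaled activity area (Aref = 0) over log10 dose.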

PACLITAXEL [11] = compound: T1, PACLITAXEL; assay: as above; details: exposure time: 5 days; dose range 0.5-1000 nM
How it was run: as §2

OSI-906 [12] = compound: T2, OSI-906; assay: as above; details: exposure time: 5 days; dose range 0.5-1000 nM
How it was run: as §2

[13] = compound: CC(=O)NCC(=O)N1[C@@H]2CC[C@H]1c1ccc(Nc3ncc(C(F)(F)F)c(NC4CCC4)n3)cc12; assay: as above; details: exposure time: 5 days; dose range 0.5-1000 nM
How it was run: as §2

CAMPTOTHECIN [14] = compound: T3, CAMPTOTHECIN; assay: as above; details: exposure time: 5 days; dose range 0.5-1000 nM
How it was run: as §2

CELECOXIB [15] = compound: T4, CELECOXIB; assay: as above; details: exposure time: 5 days; dose range 0.5-1000 nM
How it was run: as §2

CARBOPLATIN [16] = compound: T5, CARBOPLATIN; assay: as above; details: exposure time: 5 days; dose range 0.5-1000 nM
How it was run: as §2

YM155 [17] = compound: T6, YM155; assay: as above; details: exposure time: 5 days; dose range 0.5-1000 nM
How it was run: as §2

GEFITINIB [18] = compound: T7, GEFITINIB; assay: as above; details: exposure time: 5 days; dose range 0.5-1000 nM
How it was run: as §2

CAL51 BREAST
surviving fraction ([1]; 0.5 nM): 0.964 ± 0.089 | surviving fraction ([1]; 1 nM): 0.962 ± 0.055 | surviving fraction ([1]; 5 nM): 0.982 ± 0.037 | surviving fraction ([1]; 10 nM): 0.94 ± 0.06 | surviving fraction ([1]; 50 nM): 0.997 ± 0.029 | surviving fraction ([1]; 100 nM): 1.07 ± 0.012 | surviving fraction ([1]; 500 nM): 0.968 ± 0.052 | surviving fraction ([1]; 1000 nM): 0.908 ± 0.0048 | surviving fraction (PACLITAXEL [2]; 0.5 nM): 0.824 ± 0.04 | surviving fraction (PACLITAXEL [2]; 1 nM): 0.642 ± 0.076 | surviving fraction (PACLITAXEL [2]; 5 nM): 0.0935 ± 0.013 | surviving fraction (PACLITAXEL [2]; 10 nM): 0.0585 ± 0.0033 | surviving fraction (PACLITAXEL [2]; 50 nM): 0.0427 ± 0.0018 | surviving fraction (PACLITAXEL [2]; 100 nM): 0.0332 ± 0.0037 | surviving fraction (PACLITAXEL [2]; 500 nM): 0.0295 ± 0.0005 | surviving fraction (PACLITAXEL [2]; 1000 nM): 0.0332 ± 0.0027 | surviving fraction (OSI-906 [3]; 0.5 nM): 0.958 ± 0.023 | surviving fraction (OSI-906 [3]; 1 nM): 0.924 ± 0.018 | surviving fraction (OSI-906 [3]; 5 nM): 0.9553 ± 0.0093 | surviving fraction (OSI-906 [3]; 10 nM): 0.94 ± 0.087 | surviving fraction (OSI-906 [3]; 50 nM): 1.01 ± 0.02 | surviving fraction (OSI-906 [3]; 100 nM): 0.992 ± 0.031 | surviving fraction (OSI-906 [3]; 500 nM): 0.948 ± 0.029 | surviving fraction (OSI-906 [3]; 1000 nM): 0.922 ± 0.074 | surviving fraction ([4]; 0.5 nM): 1.01 ± 0.041 | surviving fraction ([4]; 1 nM): 0.9652 ± 0.005 | surviving fraction ([4]; 5 nM): 0.988 ± 0.032 | surviving fraction ([4]; 10 nM): 0.946 ± 0.013 | surviving fraction ([4]; 50 nM): 0.675 ± 0.019 | surviving fraction ([4]; 100 nM): 0.222 ± 0.0058 | surviving fraction ([4]; 500 nM): 0.144 ± 0.0039 | surviving fraction ([4]; 1000 nM): 0.146 ± 0.009 | surviving fraction (CAMPTOTHECIN [5]; 0.5 nM): 0.923 ± 0.077 | surviving fraction (CAMPTOTHECIN [5]; 1 nM): 0.881 ± 0.05 | surviving fraction (CAMPTOTHECIN [5]; 5 nM): 0.797 ± 0.027 | surviving fraction (CAMPTOTHECIN [5]; 10 nM): 0.52 ± 0.014 | surviving fraction (CAMPTOTHECIN [5]; 50 nM): 0.0468 ± 0.0037 | surviving fraction (CAMPTOTHECIN [5]; 100 nM): 0.0333 ± 0.0025 | surviving fraction (CAMPTOTHECIN [5]; 500 nM): 0.0225 ± 0.00087 | surviving fraction (CAMPTOTHECIN [5]; 1000 nM): 0.0242 ± 0.0021 | surviving fraction (CELECOXIB [6]; 0.5 nM): 1.03 ± 0.023 | surviving fraction (CELECOXIB [6]; 1 nM): 1.04 ± 0.056 | surviving fraction (CELECOXIB [6]; 5 nM): 0.991 ± 0.026 | surviving fraction (CELECOXIB [6]; 10 nM): 0.998 ± 0.08 | surviving fraction (CELECOXIB [6]; 50 nM): 1.07 ± 0.027 | surviving fraction (CELECOXIB [6]; 100 nM): 1.11 ± 0.03 | surviving fraction (CELECOXIB [6]; 500 nM): 1.07 ± 0.021 | surviving fraction (CELECOXIB [6]; 1000 nM): 1.05 ± 0.064 | surviving fraction (CARBOPLATIN [7]; 0.5 nM): 0.974 ± 0.023 | surviving fraction (CARBOPLATIN [7]; 1 nM): 0.924 ± 0.08 | surviving fraction (CARBOPLATIN [7]; 5 nM): 0.98 ± 0.018 | surviving fraction (CARBOPLATIN [7]; 10 nM): 0.996 ± 0.017 | surviving fraction (CARBOPLATIN [7]; 50 nM): 1.03 ± 0.077 | surviving fraction (CARBOPLATIN [7]; 100 nM): 1.02 ± 0.022 | surviving fraction (CARBOPLATIN [7]; 500 nM): 1.09 ± 0.022 | surviving fraction (CARBOPLATIN [7]; 1000 nM): 0.977 ± 0.024 | surviving fraction (YM155 [8]; 0.5 nM): 0.905 ± 0.039 | surviving fraction (YM155 [8]; 1 nM): 0.873 ± 0.042 | surviving fraction (YM155 [8]; 5 nM): 0.231 ± 0.029 | surviving fraction (YM155 [8]; 10 nM): 0.105 ± 0.015 | surviving fraction (YM155 [8]; 50 nM): 0.0278 ± 0.001 | surviving fraction (YM155 [8]; 100 nM): 0.0232 ± 0.00058 | surviving fraction (YM155 [8]; 500 nM): 0.019 ± 0.00087 | surviving fraction (YM155 [8]; 1000 nM): 0.024 ± 0.0005 | surviving fraction (GEFITINIB [9]; 0.5 nM): 1.01 ± 0.089 | surviving fraction (GEFITINIB [9]; 1 nM): 0.995 ± 0.07 | surviving fraction (GEFITINIB [9]; 5 nM): 1.01 ± 0.015 | surviving fraction (GEFITINIB [9]; 10 nM): 1 ± 0.036 | surviving fraction (GEFITINIB [9]; 50 nM): 1.08 ± 0.035 | surviving fraction (GEFITINIB [9]; 100 nM): 1.02 ± 0.016 | surviving fraction (GEFITINIB [9]; 500 nM): 1.13 ± 0.015 | surviving fraction (GEFITINIB [9]; 1000 nM): 1.07 ± 0.066 | area under dose-response curve [10]: 3.21 | area under dose-response curve (PACLITAXEL [11]): 0.546 | area under dose-response curve (OSI-906 [12]): 3.16 | area under dose-response curve [13]: 2.15 | area under dose-response curve (CAMPTOTHECIN [14]): 1.36 | area under dose-response curve (CELECOXIB [15]): 3.45 | area under dose-response curve (CARBOPLATIN [16]): 3.33 | area under dose-response curve (YM155 [17]): 0.772 | area under dose-response curve (GEFITINIB [18]): 3.42

HS57T LUNG
area under dose-response curve [10]: 3.56 | area under dose-response curve (PACLITAXEL [11]): 0.449 | area under dose-response curve (OSI-906 [12]): 2.92 | area under dose-response curve [13]: 2.46 | area under dose-response curve (CAMPTOTHECIN [14]): 1.43 | area under dose-response curve (CELECOXIB [15]): 3.47 | area under dose-response curve (CARBOPLATIN [16]): 3.58 | area under dose-response curve (YM155 [17]): 1.67 | area under dose-response curve (GEFITINIB [18]): 3.31
